Assay [1] concerns the target T1, Recombinant Human Bruton's tyrosine kinase (Btk) (Homo sapiens, UniProt Q06187).
T1 construct: Full length human BTK (hBTK, Genbank#NM_000061.2) was cloned into pFastBac-HTB vector; 6XHis (N); made in house; host or cells: Sf9 cells (Bac-to-Bac baculovirus expression system)
In words: Recombinant Human Bruton's tyrosine kinase (Btk) inhibition assay (HTRF KinEASE-TK). The note with it: 20 ng/ml rhBtk, 77 µM ATP (KM), 1 µM TK-Biotin Substrate, 90 minutes; read-out: IC50 (nM) in recombinant hBTK assay. It counts as biochemical. The protocol:
Recombinant Human Bruton's tyrosine kinase (Btk) inhibition assay.
Full length human BTK (hBTK, Genbank#NM_000061.2) was cloned into pFastBac-HTB vector (Invitrogen, cat#10359-016). hBTK gene was expressed with N'-terminal 6XHis tag in Sf9 cells using Bac-to-Bac ^(R) Baculovirus expression system (Invitrogen, cat#10359-016) and the recombinant protein was purified by Ni-NTA method. The elution buffer for hBTK consisted of 50 mM Hepes pH 8.0, 300 mM NaCl, 10% glycerol, 1 mM dithiothreitol and 200 mM imidazole.
The inhibition assays were performed using the generic tyrosine kinase assay kit from Cis Bio (HTRF® KinEASE - TK™ # 62TK0PEB). The assay is based on the principle of fluorescence resonance energy transfer (FRET) between the Europium Cryptate labeled anti-phosphotyrosine antibody and streptavidin labeled fluorophore, XL-665. In an uninhibited kinase reaction the biotinylated peptide substrate (Tk-Biotin) gets phosphorylated at an intermediate tyrosine site which is captured by anti-phosphotyrosine antibody which eventually acts as a FRET donor. The streptavidin labeled XL-665 binds strongly to the Tk-Biotin substrate and act as a FRET acceptor. The resultant FRET signal is measured at 665 nm. A ratio of this specific fluorescence (665nm) to the background fluorescence (620nm), conferred by the free antibody, is directly proportional to the kinase activity.
The Btk inhibition assays were performed using 20 ng/ml of rhBtk in a final volume of 10µl reaction buffer containing 77 µM ATP and 1 µM TK-Biotin Substrate in 50 mM HEPES pH 7.0, 5mM MgCl2, 1mM DTT, 0.01% Tween 20 and 50nM SEB®; with a range of concentrations of the inhibitors. The kinase reaction was carried out at the KM of ATP (77 µM) as well as that of Tk-Biotin substrate (1 µM). After 90 minutes, the reaction was stopped by addition of SA-XL665 at a concentration of 62.5 nM in HTRF® detection buffer containing EDTA. Finally 5 µL of TK antibody-cryptate was added to the reaction and the plate was incubated for additional 60 minutes. The fluorescence was read using the FlexStation (Molecular Devices) with excitation at 340 nm and emissions at 620nm (for Cryptate) and 665nm (for FRET). A ratio of the 2 emissions was calculated for each well and expressed as follows: Specific signal = Ratio(Sample)−Ratio(Negative) [formula] Ratio = (665nm/620nm) × 10^4 [formula] Mean Ratio = ∑Ratio/3(triplicates) [formula]
For each data point, % inhibition is calculated based on uninhibited reaction which is considered as 100% activity over no enzyme or substrate controls. Dose response data is then fit using a four parameter logistic equation using GraphPad Prism 5 software to determine inhibition constant 50(IC50).
In general terms: Time-resolved FRET reads energy transfer from a long-lived donor to a nearby acceptor.

In assay [2] the test system is B cell activation as measured by CD69 expression in mouse splenocytes. Description: Inhibition of B cell activation as measured by CD69 expression in mouse splenocytes (flow cytometry). It counts as cell-based. The following applies: C57/BL6 splenocytes, 3 µg/mL goat anti-mouse IgM, 18-20 hours, CD69 +ve cells within CD19; read-out: IC50 (nM) in B cell activation assay in Mouse spleenocytes. The source says: Inhibition of B cell activation as measured by CD69 expression in mouse splenocytes:
To test the effect of BTK inhibitors in suppressing B-cell receptor (BCR) mediated activation of B cells, we developed a flow cytometry based assay to analyze CD69 expression in B cell population among total splenocyte from the mouse. C57/BL6 mouse spleens were dissected out and splenocytes were isolated by mincing the tissue with a syringe plunger followed by RBC lysis (0.85% ammonium chloride, (Qualigens,Cat #21405) and several washes in PBS. Finally, cell were cultured in culture medium [RPMI medium (Sigma, Cat R6504) with 10% FBS (Gibco - Cat #10270).
Test compounds were diluted half log starting from 2 mM in 100% DMSO (Sigma, cat#D2650) (200X). 1x10^5 splenocytes were incubated with 1 µL of diluted test compounds in 200 µL culture medium in a U-bottom 96 well plate (Greiner) at 37°C with 5% CO2 for 30 minutes. Control wells received 1 µL of 100% DMSO without any compound. The cells were stimulated with 3 µg/mL goat anti-mouse IgM (Sigma, cat#M8644) and incubated for 18-20 hours. After the stimulation, cells were washed in cold PBS with 1% FBS and stained with 1:100 dilution of anti-CD69-PE (eBioscience, cat#12-0691-83) and anti-CD19-PE.Cy5 (eBioscience, cat#15-0193-83) for 1 hour on ice. Then the cells were washed 3 times with PBS with 1% FBS and analyzed by Guava Easycyte Mini flow cytometer system (Millipore). Flow cytometry data were analyzed using Weasel software (WEHI, Melbourne). B cells were gated using CD19 marker. Expression of CD69 was analyzed as percentage of CD69 +ve cells within CD19. Percent activity for each data point was calculated using following formula: [formula]
(§1) Percentage activity was fit using sigmoid dose response with variable slope logistic equation in GraphPad Prism 5 software to determine IC50.
(In general: Flow cytometry measures light scatter and fluorescence of single cells or particles in a stream.)

Assay [3] deals with B cell activation as measured by CD69 expression in Human whole blood. Description: Inhibition of B cell activation as measured by CD69 expression in Human whole blood (flow cytometry). The note with it: heparinized human whole blood, anti-IgD antibody 30 µg/mL, 4 hours, CD69 positive cells among CD20 B cells. It counts as cell-based. Here is the method:
Inhibition of B cell activation as measured by CD69 expression in Human whole blood
To test the effect of BTK inhibitors in suppressing B-cell receptor (BCR) mediated activation of B cells, we developed a flow cytometry based assay to analyze CD69 expression in B cell population in human whole blood. Freshly collected heparinized human whole blood (60 µL/well) was dispensed in 96-well U bottom plate (Greiner), treated with the test compound at a concentrations ranging from 10 µM to 0.3 nM (half log dilutions). 0.5% DMSO (Sigma, cat#D2650) was used as vehicle control. The whole blood was incubated with compounds for 1 hour, followed by stimulation with anti-IgD antibody (Goat Anti-Human IgD Antibody - affinity purified, Bethyl laboratories, cat#A80-106A) at a final concentration of 30 µg/mL at 37°C and 5% CO2 for 4 hours. Subsequently, 45 µL blood was transferred to 1.5 ml microcentrifuge tubes and 1.2 µL of anti-CD20-PE.Cy5 (BD Biosciences, cat#561761)and 1.6 µL of anti-CD69-PE (eBioscience, cat#12-0691-83) antibody were added and mixed properly by gently tapping the tubes. Blood was stained for 20 minutes at room temperature (RT). After antibody incubation, 1 mL pre-warmed 1X Lyse/Fix solution (BD Biosciences, cat#558049) was added and cells were incubated at RT for 10 minutes. Then the tubes were centrifuged at 450xg for 5 minutes at RT and supernatant was removed. Pellet was disrupted by gentle tapping, cells were washed with 1 mL freshly prepared wash buffer and centrifuged at 450xg for 5 minutes at RT. Supernatant was removed completely before resuspending cells in 200 µl of wash buffer and proceeded for acquisition in Guava Easy Cyte Mini instrument. Acquisition was done with following laser settings: FSC Gain: X 16, FSC fine gain 100%, SSC: 893V, GRN: 663V, YLW: 649V, RED: 802V, Threshold Parameters Offset: FSC 0.73 V Threshold 300 units. The cells were diluted in such a way so that cell conc. should not exceed 500 cells/µL and at least 5000 cells were acquired. Viable lymphocytes were gated from the forward and side scatter profile of cells and B cells were sub-gated based on CD20-PE.Cy5 staining. Percent of CD69-PE positive cells were calculated among B lymphocyte sub-gate using Weasel software. Percent activity for each data point was calculated using following formula: [formula]
as §1

Experimental findings from patent publication EP3042903B1, “Substituted hetero-bicyclic compounds, compositions and medicinal applications thereof” (Impetis Biosciences Ltd., priority 2015, dated 2016) are described below.

T1 sequence (Q06187 whole entry): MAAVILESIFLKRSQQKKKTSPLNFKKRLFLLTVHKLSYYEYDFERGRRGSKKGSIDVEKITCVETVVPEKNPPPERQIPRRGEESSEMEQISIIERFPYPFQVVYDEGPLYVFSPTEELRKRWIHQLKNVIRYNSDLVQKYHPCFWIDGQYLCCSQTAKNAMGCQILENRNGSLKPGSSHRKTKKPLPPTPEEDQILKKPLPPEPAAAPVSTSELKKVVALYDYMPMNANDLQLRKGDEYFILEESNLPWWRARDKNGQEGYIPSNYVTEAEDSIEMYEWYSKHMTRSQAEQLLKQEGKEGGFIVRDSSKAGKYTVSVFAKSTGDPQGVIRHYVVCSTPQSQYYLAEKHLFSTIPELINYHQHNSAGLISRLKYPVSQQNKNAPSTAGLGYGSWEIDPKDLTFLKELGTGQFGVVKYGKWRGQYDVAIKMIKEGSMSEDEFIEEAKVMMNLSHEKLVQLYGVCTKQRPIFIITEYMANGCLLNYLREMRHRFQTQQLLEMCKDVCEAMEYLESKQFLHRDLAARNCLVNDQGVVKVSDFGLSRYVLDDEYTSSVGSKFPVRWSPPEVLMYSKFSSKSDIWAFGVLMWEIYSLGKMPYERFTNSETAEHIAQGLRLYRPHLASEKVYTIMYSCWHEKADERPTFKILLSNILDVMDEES

In the case of `O=C1c2c(F)cc(C3CC3)cc2OCCN1c1cc(F)cc(-c2ccnc3[nH]c(-c4ccc(CN5CCN(CC(F)F)CC5)cn4)cc23)c1CO` [Example 3, 8-cyclopropyl-4-[3-[2-[5-[[4-(2,2-difluoroethyl)piperazin-1-yl]methyl]-2-pyridyl]-1H-pyrrolo[2,3-b]pyridin-4-yl]-5-fluoro-2-(hydroxymethyl)phenyl]-6-fluoro-2,3-dihydro-1,4-benzoxazepin-5-one], the IC50 in assay [1] was 0.65 nM; in assay [2], 2.4 nM; in assay [3] it was 54.2 nM.

The term IC50 denotes the midpoint of a concentration-inhibition curve.
